{"source": "ChEMBL document CHEMBL4346765", "about": "“Design, synthesis and biological evaluation of novel dithiocarbamate-substituted diphenylaminopyrimidine derivatives as BTK inhibitors” (Bioorg Med Chem, 2019)", "key": {"[1]": {"tested_on": "K562", "experiment": "Cytotoxicity against human K562 cells assessed as reduction in cell viability at 0.1 to 40 uM incubated for 48 hrs by MTS assay", "format": "functional, cell-based", "settings": "K562, 48 h"}, "[2]": {"tested_on": "786-0", "experiment": "Cytotoxicity against human 786-O cells assessed as reduction in cell viability at 0.1 to 40 uM incubated for 48 hrs by MTS assay", "format": "functional, cell-based", "settings": "786-0, 48 h"}, "[3]": {"tested_on": "MCF-10A", "experiment": "Cytotoxicity against human MCF10A cells assessed as reduction in cell viability at 0.1 to 40 uM incubated for 48 hrs by MTS assay", "format": "cell-based"}, "[4]": {"target": "T1, Tyrosine-protein kinase BTK (Homo sapiens, UniProt Q06187)", "T1 sequence (Q06187 whole entry)": "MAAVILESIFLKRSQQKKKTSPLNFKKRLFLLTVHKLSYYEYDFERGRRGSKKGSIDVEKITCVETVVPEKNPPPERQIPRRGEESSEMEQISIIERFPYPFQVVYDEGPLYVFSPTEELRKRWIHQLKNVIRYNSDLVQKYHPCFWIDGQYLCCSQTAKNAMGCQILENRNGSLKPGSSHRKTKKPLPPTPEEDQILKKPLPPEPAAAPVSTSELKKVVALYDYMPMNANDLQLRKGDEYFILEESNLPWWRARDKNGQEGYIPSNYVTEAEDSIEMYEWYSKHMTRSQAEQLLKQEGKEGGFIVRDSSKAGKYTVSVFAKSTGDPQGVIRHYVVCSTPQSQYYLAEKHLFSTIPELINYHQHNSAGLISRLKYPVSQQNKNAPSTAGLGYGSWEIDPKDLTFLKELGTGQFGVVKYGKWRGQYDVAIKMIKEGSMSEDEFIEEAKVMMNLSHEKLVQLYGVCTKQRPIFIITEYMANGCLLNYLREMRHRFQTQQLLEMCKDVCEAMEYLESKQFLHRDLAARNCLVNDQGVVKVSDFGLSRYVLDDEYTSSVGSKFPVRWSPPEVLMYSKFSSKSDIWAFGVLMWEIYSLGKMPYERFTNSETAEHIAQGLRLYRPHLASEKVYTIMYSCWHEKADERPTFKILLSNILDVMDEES", "experiment": "Inhibition of human recombinant full length BTK expressed in baculovirus in Sf9 insect cells using Poly (4:1 Glu, Tyr) as substrate incubated for 1 hr by ADP-Glo assay"}, "[5]": {"tested_on": "Raji", "experiment": "Antiproliferative activity against human Raji cells assessed as reduction in cell growth incubated for 48 hrs by MTS assay"}, "[6]": {"tested_on": "Jurkat", "experiment": "Cytotoxicity against human Jurkat cells assessed as reduction in cell viability at 0.1 to 40 uM incubated for 48 hrs by MTS assay", "format": "functional, cell-based"}, "[7]": {"tested_on": "MCF7", "experiment": "Cytotoxicity against human MCF7 cells assessed as reduction in cell viability at 0.1 to 40 uM incubated for 48 hrs by MTS assay", "format": "functional, cell-based", "settings": "MCF7, 48 h"}, "[8]": {"experiment": "Toxicity in NOD/SCID mouse xenografted with human Ramos cells assessed as induction of morphological lesions in kidney at 60 mg/kg/day, ip administered daily for 14 days by H and E staining based histologic analysis", "format": "organism-based", "settings": "in vivo, 336 h"}, "[9]": {"tested_on": "Ramos", "experiment": "Potency index,ratio of Ibrutinib IC50 to compound IC50 for antiproliferative activity against human Ramos cells assessed as reduction in cell growth incubated for 48 hrs by MTS assay", "format": "functional"}, "[10]": {"tested_on": "Raji", "experiment": "Potency index,ratio of Ibrutinib IC50 to compound IC50 for antiproliferative activity against human Raji cells assessed as reduction in cell growth incubated for 48 hrs by MTS assay", "format": "functional"}, "[11]": {"experiment": "Cytotoxicity against human HELF cells assessed as reduction in cell viability at 0.1 to 40 uM incubated for 48 hrs by MTS assay", "format": "cell-based"}, "[12]": {"tested_on": "PC-3", "experiment": "Cytotoxicity against human PC3 cells assessed as reduction in cell viability at 0.1 to 40 uM incubated for 48 hrs by MTS assay", "format": "functional, cell-based", "settings": "PC-3, 48 h"}, "[13]": {"tested_on": "NCI-H3122", "experiment": "Cytotoxicity against human NCI-H3122 cells assessed as reduction in cell viability at 0.1 to 40 uM incubated for 48 hrs by MTS assay", "format": "functional, cell-based", "settings": "NCI-H3122, 48 h"}, "[14]": {"experiment": "Toxicity in NOD/SCID mouse xenografted with human Ramos cells assessed as induction of morphological lesions in spleen at 60 mg/kg/day, ip administered daily for 14 days by H and E staining based histologic analysis", "format": "organism-based", "settings": "in vivo, 336 h"}, "[15]": {"tested_on": "Ramos", "experiment": "Induction of apoptosis in human Ramos cells assessed as increase in cleaved PARP1 protein expression at 0.01 to 10 uM incubated for 8 hrs by Western blotting analysis", "format": "functional, cell-based"}, "[16]": {"tested_on": "NCI-H1299", "experiment": "Cytotoxicity against human H1299 cells assessed as reduction in cell viability at 0.1 to 40 uM incubated for 48 hrs by MTS assay", "format": "functional, cell-based", "settings": "NCI-H1299, 48 h"}, "[17]": {"target": "T1, Tyrosine-protein kinase BTK", "experiment": "Inhibition of BTK in anti-IgM-stimulated human Ramos cells assessed as reduction in PLCgamma2 phosphorylation at Y1217 residues at 0.01 to 10 uM incubated for 4 hrs followed by anti-IgM stimulation for 30 mins by Western blot analysis", "format": "cell-based"}, "[18]": {"tested_on": "Ramos", "experiment": "Antiproliferative activity against human Ramos cells assessed as reduction in cell growth incubated for 48 hrs by MTS assay"}, "[19]": {"tested_on": "Raji", "experiment": "Potency index,ratio of Spebrutinib IC50 to compound IC50 for antiproliferative activity against human Raji cells assessed as reduction in cell growth incubated for 48 hrs by MTS assay", "format": "functional"}, "[20]": {"experiment": "Toxicity in NOD/SCID mouse xenografted with human Ramos cells assessed as induction of morphological lesions in lung at 60 mg/kg/day, ip administered daily for 14 days by H and E staining based histologic analysis", "format": "organism-based", "settings": "in vivo, 336 h"}, "[21]": {"experiment": "Toxicity in NOD/SCID mouse xenografted with human Ramos cells assessed as induction of morphological lesions in liver at 60 mg/kg/day, ip administered daily for 14 days by H and E staining based histologic analysis", "format": "organism-based", "settings": "in vivo, 336 h"}, "[22]": {"experiment": "Toxicity in NOD/SCID mouse xenografted with human Ramos cells assessed as changes in body weight at 30 to 60 mg/kg/day, ip administered daily for 14 days", "format": "organism-based", "settings": "in vivo, 336 h"}, "[23]": {"tested_on": "Ramos", "experiment": "Potency index,ratio of Spebrutinib IC50 to compound IC50 for antiproliferative activity against human Ramos cells assessed as reduction in cell growth incubated for 48 hrs by MTS assay", "format": "functional"}, "[24]": {"tested_on": "HEF", "experiment": "Cytotoxicity against human HEF cells assessed as reduction in cell viability at 0.1 to 40 uM incubated for 48 hrs by MTS assay", "format": "cell-based"}, "[25]": {"tested_on": "A549", "experiment": "Cytotoxicity against human A549 cells assessed as reduction in cell viability at 0.1 to 40 uM incubated for 48 hrs by MTS assay", "format": "functional, cell-based", "settings": "A549, 48 h"}, "[26]": {"target": "T1, Tyrosine-protein kinase BTK", "experiment": "Inhibition of BTK in anti-IgM-stimulated human Ramos cells assessed as reduction in autophosphorylation at Y223 residues at 0.01 to 10 uM incubated for 4 hrs followed by anti-IgM stimulation for 30 mins by Western blot analysis", "format": "cell-based"}, "[27]": {"tested_on": "KARPAS-299", "experiment": "Cytotoxicity against human KARPAS299 cells assessed as reduction in cell viability at 0.1 to 40 uM incubated for 48 hrs by MTS assay", "format": "functional, cell-based", "settings": "KARPAS-299, 48 h"}, "[28]": {"tested_on": "Ramos", "experiment": "Antitumor activity in human Ramos cells xenografted in NOD/SCID mouse assessed as reduction in tumor growth at 60 mg/kg/day, ip administered daily for 14 days", "format": "functional", "settings": "336 h, read-out: TGI"}, "[29]": {"tested_on": "HeLa", "experiment": "Cytotoxicity against human HeLa cells assessed as reduction in cell viability at 0.1 to 40 uM incubated for 48 hrs by MTS assay", "format": "functional, cell-based"}, "[30]": {"tested_on": "BJ", "experiment": "Cytotoxicity against human BJ cells assessed as reduction in cell viability at 0.1 to 40 uM incubated for 48 hrs by MTS assay", "format": "cell-based"}, "[31]": {"experiment": "Toxicity in NOD/SCID mouse xenografted with human Ramos cells assessed as induction of morphological lesions in heart at 60 mg/kg/day, ip administered daily for 14 days by H and E staining based histologic analysis", "format": "organism-based", "settings": "in vivo, 336 h"}, "[32]": {"tested_on": "HT-29", "experiment": "Cytotoxicity against human HT-29 cells assessed as reduction in cell viability at 0.1 to 40 uM incubated for 48 hrs by MTS assay", "format": "functional, cell-based", "settings": "HT-29, 48 h"}, "[33]": {"tested_on": "MDA-MB-231", "experiment": "Cytotoxicity against human MDA-MB-231 cells assessed as reduction in cell viability at 0.1 to 40 uM incubated for 48 hrs by MTS assay", "format": "functional, cell-based", "settings": "MDA-MB-231, 48 h"}, "[34]": {"target": "T1, Tyrosine-protein kinase BTK", "experiment": "Inhibition of BTK in anti-IgM-stimulated human Ramos cells assessed as reduction in Erk phosphorylation at 0.01 to 10 uM incubated for 4 hrs followed by anti-IgM stimulation for 30 mins by Western blot analysis", "format": "cell-based"}, "[35]": {"tested_on": "Ramos", "experiment": "Antitumor activity in human Ramos cells xenografted in NOD/SCID mouse assessed as reduction in tumor growth at 30 mg/kg/day, ip administered daily for 14 days", "format": "functional", "settings": "336 h, read-out: TGI"}, "[36]": {"target": "T1, Tyrosine-protein kinase BTK", "experiment": "Inhibition of BTK in anti-IgM-stimulated human Ramos cells assessed as reduction in Akt phosphorylation at 0.01 to 10 uM incubated for 4 hrs followed by anti-IgM stimulation for 30 mins by Western blot analysis", "format": "cell-based"}, "[37]": {"tested_on": "HepG2", "experiment": "Cytotoxicity against human HepG2 cells assessed as reduction in cell viability at 0.1 to 40 uM incubated for 48 hrs by MTS assay", "format": "functional, cell-based", "settings": "HepG2, 48 h"}}, "note": "Active and inactive are the calls of the source. The rule behind the calls is not given here.", "data": [{"compound": "C=CC(=O)Nc1cccc(Nc2nc(Nc3ccc(OCCSC(=S)NCc4cccnc4)cc3)ncc2F)c1", "values": [{"measurement": "IC50", "setting": "[1]", "result": 3.27, "unit": "µM"}, {"measurement": "IC50", "setting": "[2]", "result": 4.96, "unit": "µM"}, {"measurement": "IC50", "setting": "[3]", "result": 8.62, "unit": "µM"}, {"measurement": "IC50", "setting": "[4]", "result": 0.00115, "unit": "µM"}, {"measurement": "IC50", "setting": "[5]", "result": 0.706, "unit": "µM"}, {"measurement": "IC50", "setting": "[6]", "result": 2.49, "unit": "µM"}, {"measurement": "IC50", "setting": "[7]", "result": 17.4, "unit": "µM"}, {"measurement": "Activity", "setting": "[8]", "result": "Non-Toxic"}, {"measurement": "Ratio IC50", "setting": "[9]", "result": 10}, {"measurement": "Ratio IC50", "setting": "[10]", "result": 10}, {"measurement": "IC50", "setting": "[11]", "result": 19.3, "unit": "µM"}, {"measurement": "IC50", "setting": "[12]", "result": 8.25, "unit": "µM"}, {"measurement": "IC50", "setting": "[13]", "result": 33.4, "unit": "µM"}, {"measurement": "Activity", "setting": "[14]", "result": "Non-Toxic"}, {"measurement": "Activity", "setting": "[15]", "result": "Active"}, {"measurement": "IC50", "setting": "[16]", "result": 17.9, "unit": "µM"}, {"measurement": "inhibition", "setting": "[17]", "result": "Dose-dependent effect"}, {"measurement": "IC50", "setting": "[18]", "result": 0.357, "unit": "µM"}, {"measurement": "Ratio IC50", "setting": "[19]", "result": 10}, {"measurement": "Activity", "setting": "[20]", "result": "Non-Toxic"}, {"measurement": "Activity", "setting": "[21]", "result": "Non-Toxic"}, {"measurement": "Activity", "setting": "[22]", "result": "Non-Toxic"}, {"measurement": "Ratio IC50", "setting": "[23]", "result": 10}, {"measurement": "IC50", "setting": "[24]", "result": 28.4, "unit": "µM"}, {"measurement": "IC50", "setting": "[25]", "result": 3.2, "unit": "µM"}, {"measurement": "inhibition", "setting": "[26]", "result": "Active"}, {"measurement": "IC50", "setting": "[27]", "result": "> 40", "unit": "µM"}, {"measurement": "inhibition in vivo at 60 mg/kg/day", "setting": "[28]", "result": 57.8, "unit": "%"}, {"measurement": "IC50", "setting": "[29]", "result": 8.74, "unit": "µM"}, {"measurement": "IC50", "setting": "[30]", "result": 12.8, "unit": "µM"}, {"measurement": "Activity", "setting": "[31]", "result": "Non-Toxic"}, {"measurement": "IC50", "setting": "[32]", "result": 10.2, "unit": "µM"}, {"measurement": "IC50", "setting": "[33]", "result": 35.4, "unit": "µM"}, {"measurement": "inhibition", "setting": "[34]", "result": "inactive"}, {"measurement": "inhibition in vivo at 30 mg/kg/day", "setting": "[35]", "result": 21.5, "unit": "%"}, {"measurement": "inhibition", "setting": "[36]", "result": "Active"}, {"measurement": "IC50", "setting": "[37]", "result": 16.2, "unit": "µM"}]}]}
